Values of other authors as cited in patent US20120183988A1, “INTEIN-BASED F[…]-CIRCUIT FOR VITAMIN D DETECTION” (priority 2009, published 2012).

Settings: cited from reference 2 (Haddad and Stamp 1974)

C=C1CC[C@H](O)C/C1=C/C=C1\CCC[C@]2(C)[C@@H]([C@H](C)CCCC(C)(C)O)CC[C@@H]12 [25(OH)D3, 25-hydroxyvitamin D3]
serum half-life: ca. 3 weeks
